The source of these data is US11395823B2, “Topical administration of MEK inhibiting agents for the treatment of skin disorders” (Duke University, priority 2018, dated 2022).

One data set concerns K5-CreER.Braf^Ca/+ mice. Nature of the data set: Topical treatment of Braf mutation-induced skin tumors and inflammation in K5-CreER.Braf^Ca/+ mice. Type of data set: in vivo. Here is the method:
Experiments were conducted that tested whether topical dose trametinib can effectively treat the skin lesions induced by Braf mutation. To do this, Braf mutation was induced in the rear back skins of 2-month old K5-CreER.Braf^Ca/+ mice with 4-OHT, and 7 days later, applied five consecutive daily topical doses of trametinib (see, FIG. 3a).
Braf mutant animals: K14-Cre and K5-CreER mice were provided by Duke University. These animals were crossed with Tyr-CreER.Braf^Ca+/−.PTEN−/− mice which were provided by Duke University. Genotyping were performed via PCR. For topical induction, the back skins of adult animals were shaved and treated with two consecutive daily doses of 4-OHT (Sigma, 5 mg/ml in ethanol).
Mouse tissues: For H&E staining of mouse skins, 5 μm frozen tissue sections were fixed with ethanol and stained with Hematoxylin and Eosin. For immunostaining, 5 μm frozen tissue sections were fixed with cold methanol, incubated with and a primary antibody against CD8 (Tonbo Biosciences), and detected with a secondary antibody conjugated to Dylight 488 (Invitrogen) followed by counterstaining with Hoechst 33342. The images were obtained with the Olympus imaging system.

Another data set deals with SKH-1Elite mice. Nature of the data set: UV-induced skin carcinogenesis. Format: in vivo. The source says:
UV is a primary cause of melanoma and non-melanoma skin cancer. To assess whether topical trametinib inhibits UV-induced skin carcinogenesis, SKH animals (n=10, 5 male and 5 female) were irradiated biweekly with 160 mJ broad band UVB along with pretreatment of solvent or trametinib.
UV induction of skin carcinogenesis: Six weeks old hairless SKH-1Elite mice were obtained from (Jackson Laboratory). Animals were subject to UVB irradiation (160-180 mJ dose) 3 times per week for 20 weeks using rayminder model 2 UVB midband lamp M2D24H and UV513AB digital UVA/UVB (280-400 nm) meter of General Tools. Mouse back skins were pretreated before each UV-radiation with 100 μl of solvent (5% DMSO in 95% acetone:olive oil (3:1 mixture) or 10 to 30 μM trametinib (n=5/group/sex).

In data set [1] the test system is recipient mouse T-cell alloreactivity. The following applies: oral administration; cited from earlier work.
In data set [2] the test system is C57/BL6 mice. Nature of the data set: Imiquimod (IMQ)-induced psoriasis model.
In data set [3] the test system is C57/BL6 mice. The experiment in a line: DNFB-induced atopic dermatitis model (ear swelling).

For `CC(=O)Nc1cccc(-n2c(=O)n(C3CC3)c(=O)c3c(Nc4ccc(I)cc4F)n(C)c(=O)c(C)c32)c1` [trametinib, N-(3-{3-Cyclopropyl-5-[(2-fluoro-4-iodophenyl)amino]-6,8-dimethyl-2,4,7-trioxo-3,4,6,7-tetrahydropyrido[4,3-d]pyrimidin-1 (2H)-yl}phenyl)acetamide], the “skin tumors (clinical images)” value in the data set with K5-CreER.Braf^Ca/+ mice (five consecutive daily topical doses starting 7 days after 4-OHT, by day 11) was “completely regressed”. Besides, the “treating oral lesions, topical versus systemic delivery of the same amount” value with K5-CreER.Braf^Ca/+ mice (topical vs systemic) was “more effective than systemic delivery”. In addition, the “CD8+ immune cells in the dermis (immunostaining)” value with K5-CreER.Braf^Ca/+ mice (topical, five daily doses) was “reduced CD8+ immune cells in the dermis”. The “epidermal neoplasia (histological analysis, H&E)” value in the data set on K5-CreER.Braf^Ca/+ mice (topical, five daily doses) is listed as “regressed epidermal neoplasia”. Also, the “number of tumor nodules” value with SKH-1Elite mice (10 μM topical pretreatment before each UVB irradiation) and in the data set on SKH-1Elite mice (30 μM topical pretreatment before each UVB irradiation) was “significantly lower number of tumor nodules” each time. Besides, the “recipient mouse T-cell alloreactivity” value in data set [1] was “suppresses recipient mouse T-cell alloreactivity without affecting graft-vs-tumor effects”. Further, in the data set with C57/BL6 mice [2] (60 μM topical), the animal weight loss result is “did not induce animal weight loss”. In addition, the “gross morphological changes of internal organs, including liver, kidney and spleen and lymph nodes” value with C57/BL6 mice [2] (60 μM topical) is listed as “did not induce”. Besides, the PASI score result with C57/BL6 mice [2] (60 μM topical, day 3) is reported as “reduced the PASI score”. For the same molecule, the “PASI score difference to control” value in the data set with C57/BL6 mice [2] (60 μM topical, day 5) was “differences were minimized”. In addition, the IMQ-induced epidermal thickening entry in the data set on C57/BL6 mice [2] (topical) is given as “reduces IMQ-induced epidermal thickening”. Further, the “clinical appearance of DNFB challenged right ear lobes” value in the data set with C57/BL6 mice [3] (0.2 μM topical) is “appeared thickened and inflamed”; in the data set on C57/BL6 mice [3] (20 μM topical) it was “appeared smooth and normal”. In addition, the DNFB-induced ear swelling result in the data set on C57/BL6 mice [3] (daily topical 0.2, 2, 20 μM, right ear) is given as “reduced by trametinib at a dose response manner”. The “thickness of the control (solvent-treated left) ears” value with C57/BL6 mice [3] (daily topical 0.2-20 μM) was “not significantly affected”. Moreover, in the data set on C57/BL6 mice [3] (topical), the “thickened epidermis and dermal cellular infiltration of DNFB-treated skins (histology)” value is reported as “normalized”. In addition, the “histological appearance of kidney, spleen, and liver tissues” value in the data set with C57/BL6 mice [3] (topical dosage) is “normal histological appearance”.
